Source: patent publication US20210395262A1, “INHIBITORS OF HUMAN IMMUNODEFICIENCY VIRUS REPLICATION” (ViiV HEALTHCARE UK (NO.5) LIMITED, priority 2018, published 2021)

Key:
[1] = Compound cytotoxicity, XTT-based colorimetric assay; format: cell-based; settings: human; uninfected MT2 cells, day 4, XTT; read-out: CC50
Outline: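 Run under the antiviral-assay protocol but without virus. Viability was read on day 4 and CC50 values were derived from the readout.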

[2] = system: recombinant NL4-3 virus; experiment: HIV cell culture assay (antiviral activity, luciferase readout in MT-2 cells); format: cell-based; settings: Human immunodeficiency virus 1, NL43, MT2
Outline: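 MT-2 cells infected for 4-5 days with NL4-3 reference virus carrying Renilla luciferase in place of part of nef, in presence of serial compound dilutions. Luciferase activity read with live-cell substrate. EC50 derived from median effect equation, slope parameter m.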

Row | Structure (SMILES) | CC50 at 4 days [1] | EC50 [2]
1 | Cn1nc(NS(C)(=O)=O)c2c(Cl)ccc(-n3c([C@H](Cc4cc(F)cc(F)c4)NC(=O)Cn4nc(C(F)F)c5c4C(F)(F)[C@@H]4C[C@H]54)nc4cc(N5CCS(=O)(=O)CC5)ccc4c3=O)c21 (atropisomer, axis not shown; (P)) [Example 13, N—((S)-1-((3P)-3-(4-chloro-1-methyl-3-(methylsulfonamido)-1H-indazol-7-yl)-7-(1,1-dioxidothiomorpholino)-4-oxo-3,4-dihydroquinazolin-2-yl)-2-(3,5-difluorophenyl)ethyl)-2-((3bS,4aR)-3-(difluoromethyl)-5,5-difluoro-3b,4,4a,5-tetrahydro-1H-cyclopropa[3,4]cyclopenta[1,2-c]pyrazol-1-yl)acetamide] | > 10000 nM | 0.468 nM
2 | Cn1nc(NS(C)(=O)=O)c2c(Cl)ccc(-n3c([C@H](Cc4cc(F)cc(F)c4)NC(=O)Cn4nc(C(F)F)c5c4C(F)(F)[C@@H]4C[C@H]54)nc4cc(N5CCCC5)ccc4c3=O)c21 (atropisomer, axis not shown; (P)) [Example 19, N—((S)-1-((3P)-3-(4-chloro-1-methyl-3-(methylsulfonamido)-1H-indazol-7-yl)-4-oxo-7-(pyrrolidin-1-yl)-3,4-dihydroquinazolin-2-yl)-2-(3,5-difluorophenyl)ethyl)-2-((3bS,4aR)-3-(difluoromethyl)-5,5-difluoro-3b,4,4a,5-tetrahydro-1H-cyclopropa[3,4]cyclopenta[1,2-c]pyrazol-1-yl)acetamide] | > 1000 nM | 0.222 nM
3 | C[C@@H]1CN(c2ccc3c(=O)n(-c4ccc(Cl)c5c(NS(C)(=O)=O)nn(CC(F)F)c45)c([C@H](Cc4cc(F)cc(F)c4)NC(=O)Cn4ccc(C(C)(C)C)n4)nc3c2)C[C@H](C)O1 (atropisomer, axis not shown; (P)) [Example 49, 2-(3-(tert-butyl)-1H-pyrazol-1-yl)-N—((S)-1-((3P)-3-(4-chloro-1-(2,2-difluoroethyl)-3-(methylsulfonamido)-1H-indazol-7-yl)-7-((2S,6R)-2,6-dimethylmorpholino)-4-oxo-3,4-dihydroquinazolin-2-yl)-2-(3,5-difluorophenyl)ethyl)acetamide] | > 500 nM | 2.7 nM
4 | C[C@@H]1CN(c2ccc3c(=O)n(-c4ccc(Cl)c5c(NS(C)(=O)=O)nn(CC(F)(F)F)c45)c([C@H](Cc4cc(F)cc(F)c4)NC(=O)Cn4nc(C(F)(F)F)c5c4C(F)(F)[C@@H]4C[C@H]54)nc3c2)C[C@H](C)O1 (atropisomer, axis not shown; (P)) [Example 61, N—((S)-1-((3P)-3-(4-chloro-3-(methylsulfonamido)-1-(2,2,2-trifluoroethyl)-1H-indazol-7-yl)-7-((2S,6R)-2,6-dimethylmorpholino)-4-oxo-3,4-dihydroquinazolin-2-yl)-2-(3,5-difluorophenyl)ethyl)-2-((3bS,4aR)-5,5-difluoro-3-(trifluoromethyl)-3b,4,4a,5-tetrahydro-1H-cyclopropa[3,4]cyclopenta[1,2-c]pyrazol-1-yl)acetamide] | > 500 nM | 0.084 nM
5 | Cn1nc(NS(C)(=O)=O)c2c(Cl)ccc(-n3c([C@H](Cc4cc(F)cc(F)c4)NC(=O)Cn4nc(C(F)F)c5c4C(F)(F)[C@@H]4C[C@H]54)nc4cc(N5CCC6(CCC6)CC5)ccc4c3=O)c21 (atropisomer, axis not shown; (P)) [Example 34, N—((S)-1-((3P)-3-(4-chloro-1-methyl-3-(methylsulfonamido)-1H-indazol-7-yl)-4-oxo-7-(7-azaspiro[3.5]nonan-7-yl)-3,4-dihydroquinazolin-2-yl)-2-(3,5-difluorophenyl)ethyl)-2-((3bS,4aR)-3-(difluoromethyl)-5,5-difluoro-3b,4,4a,5-tetrahydro-1H-cyclopropa[3,4]cyclopenta[1,2-c]pyrazol-1-yl)acetamide] | > 1000 nM | 2.81 nM
